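Growth conditions: 96-well plates. Treatment: test compound, 48 hours, 5 concentrations. Analysis: linear interpolation between bracketing concentrations; unreached endpoints set to highest concentration. Abbreviation: GI50, concentration required for 50% inhibition of growth.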 Active and inactive are the calls of the source. Rule as the data show it: active = GI50 up to about 1.1 µM and inactive = higher.
Experiments:
Experiment in all cases: NCI anticancer screen, dose series, 48 h
ACHN = test system: ACHN
HOP-62 = test system: HOP-62
IGROV-1 = test system: IGROV-1
K562 = test system: K562
KM12 = test system: KM12
Malme-3M = test system: Malme-3M
OVCAR-3 = test system: OVCAR-3
OVCAR-5 = test system: OVCAR-5
OVCAR-8 = test system: OVCAR-8
SF-268 = test system: SF-268
SK-MEL-28 = test system: SK-MEL-28
SK-MEL-5 = test system: SK-MEL-5
UACC-257 = test system: UACC-257
UACC-62 = test system: UACC-62
HCT-116 = test system: HCT-116
M14 = test system: M14
NCI-H460 = test system: NCI-H460
HOP-92 = test system: HOP-92

Measured: GI50

COc1ccc(-c2nc3c(nc2-c2ccc(OC)cc2)C(N)=NS(=O)(=O)N3)cc1
inactive: ACHN > 100 µM | HOP-62 > 100 µM | IGROV-1 > 100 µM | K562 > 100 µM | KM12 > 100 µM | Malme-3M > 100 µM | OVCAR-3 > 100 µM | OVCAR-5 > 100 µM | OVCAR-8 > 100 µM | SF-268 > 100 µM | SK-MEL-28 > 100 µM | SK-MEL-5 > 100 µM | UACC-257 > 100 µM | UACC-62 > 100 µM

CCOc1ccc(N2C(=O)/C(=C/c3ccc(N(CCC#N)CCC#N)cc3)N=C2c2cc([N+](=O)[O-])ccc2Cl)cc1
inactive: ACHN 49.9 µM | HCT-116 21.6 µM | HOP-62 73.1 µM | K562 21.3 µM | KM12 18.9 µM | M14 24.1 µM | NCI-H460 23.5 µM | OVCAR-3 17.7 µM | OVCAR-5 > 100 µM | OVCAR-8 35.3 µM | SF-268 30.8 µM | SK-MEL-28 7.67 µM | SK-MEL-5 18.6 µM | UACC-62 26.7 µM

O=C(/C=C1/Nc2ccc([N+](=O)[O-])cc2NC1O)c1cccc([N+](=O)[O-])c1 (stereo not given)
inactive: ACHN 66.5 µM | HCT-116 26.2 µM | HOP-62 83.9 µM | HOP-92 > 100 µM | IGROV-1 > 100 µM | K562 30.3 µM | M14 21.5 µM | Malme-3M 38.4 µM | NCI-H460 39.2 µM | OVCAR-3 35.6 µM | OVCAR-8 19.1 µM | SF-268 53.2 µM | SK-MEL-28 39.8 µM | SK-MEL-5 70.5 µM | UACC-257 82.4 µM | UACC-62 81.7 µM

O=C(/C=C/c1ccc(OCCCCCCCCCCOc2ccc(/C=C/C(=O)c3ccc(Cl)cc3)cc2)cc1)c1ccc(Cl)cc1
inactive: ACHN > 100 µM | HOP-62 > 100 µM | HOP-92 > 100 µM | IGROV-1 > 100 µM | K562 > 100 µM | KM12 > 100 µM | Malme-3M > 100 µM | NCI-H460 > 100 µM | OVCAR-3 > 100 µM | OVCAR-5 > 100 µM | OVCAR-8 > 100 µM | SF-268 > 100 µM | SK-MEL-28 > 100 µM | SK-MEL-5 > 100 µM | UACC-257 > 100 µM | UACC-62 > 100 µM

O=C1c2ccccc2C(=O)c2nc(-c3ccccc3)c(-c3ccccc3)nc21
inactive: ACHN > 100 µM | HCT-116 > 100 µM | HOP-62 33 µM | HOP-92 20.3 µM | K562 > 100 µM | KM12 > 100 µM | M14 5.69 µM | Malme-3M 1.22 µM | NCI-H460 5.83 µM | OVCAR-3 2.58 µM | OVCAR-5 > 100 µM | OVCAR-8 > 100 µM | SF-268 > 100 µM | SK-MEL-28 > 74.1 µM | SK-MEL-5 1.49 µM | UACC-257 1.89 µM | UACC-62 2.74 µM

O=C(CC(=O)c1cccc2ccccc12)C(=O)NC1C2CC3CC(C2)CC1C3 (stereo not given)
inactive: ACHN > 100 µM | HCT-116 > 100 µM | HOP-62 > 100 µM | HOP-92 34.4 µM | IGROV-1 > 100 µM | K562 51.4 µM | KM12 > 100 µM | M14 > 100 µM | Malme-3M > 100 µM | NCI-H460 > 100 µM | OVCAR-3 > 100 µM | OVCAR-5 > 100 µM | OVCAR-8 > 100 µM | SF-268 > 100 µM | SK-MEL-5 > 100 µM | UACC-257 > 100 µM | UACC-62 > 100 µM

CN(C)C(=S)Nc1nnc(Nc2ccccc2)s1
inactive: ACHN > 100 µM | HCT-116 > 100 µM | HOP-62 > 100 µM | HOP-92 > 100 µM | IGROV-1 > 100 µM | K562 > 100 µM | KM12 > 10 µM | M14 > 100 µM | Malme-3M > 100 µM | NCI-H460 > 100 µM | OVCAR-3 > 100 µM | OVCAR-5 > 100 µM | OVCAR-8 > 100 µM | SK-MEL-28 > 100 µM | SK-MEL-5 38.7 µM | UACC-257 59 µM

COC(=O)/C=C/c1cc(OC)c(OC)c(OC)c1
inactive: ACHN > 100 µM | HCT-116 > 100 µM | HOP-62 > 100 µM | HOP-92 > 100 µM | IGROV-1 > 100 µM | KM12 > 100 µM | M14 > 100 µM | Malme-3M > 100 µM | NCI-H460 > 100 µM | OVCAR-3 > 100 µM | OVCAR-8 > 100 µM | SF-268 > 100 µM | SK-MEL-28 > 100 µM | SK-MEL-5 > 100 µM | UACC-257 > 100 µM | UACC-62 78.3 µM

COc1ccc(/C(=N\NC(=N)N)C(c2ccc(OC)cc2)C2OC(=O)c3ccccc32)cc1 (stereo not given)
inactive: ACHN > 100 µM | HCT-116 > 100 µM | HOP-62 > 100 µM | HOP-92 > 100 µM | IGROV-1 > 100 µM | K562 > 100 µM | KM12 > 100 µM | M14 > 100 µM | Malme-3M > 100 µM | NCI-H460 > 100 µM | OVCAR-3 > 100 µM | OVCAR-5 > 100 µM | OVCAR-8 > 100 µM | SF-268 > 100 µM | SK-MEL-28 > 100 µM | SK-MEL-5 > 100 µM | UACC-257 > 100 µM | UACC-62 > 100 µM

C1=CC(N(c2ccccc2)C2C=CCCC2)CCC1 (stereo not given)
inactive: ACHN > 100 µM | HCT-116 70.1 µM | HOP-92 35.8 µM | IGROV-1 > 100 µM | K562 > 100 µM | M14 > 100 µM | NCI-H460 > 100 µM | OVCAR-8 > 100 µM | SF-268 > 100 µM | SK-MEL-28 > 100 µM | SK-MEL-5 84.1 µM | UACC-62 > 100 µM

Clc1cccc(-c2nnc(-c3nn(-c4ccccc4)c4nc5ccccc5nc34)o2)c1
inactive: ACHN > 100 µM | HCT-116 > 100 µM | HOP-62 > 100 µM | IGROV-1 > 100 µM | K562 > 100 µM | KM12 > 100 µM | M14 > 100 µM | Malme-3M > 100 µM | NCI-H460 > 100 µM | OVCAR-3 > 100 µM | OVCAR-5 > 100 µM | OVCAR-8 > 100 µM | SF-268 > 100 µM | SK-MEL-28 > 100 µM | SK-MEL-5 77.4 µM | UACC-257 > 100 µM | UACC-62 > 100 µM

COc1ccc(C2S/C(=C\c3ccc([N+](=O)[O-])cc3)C(=O)N2NC(=O)Cc2ccccc2)cc1 (stereo not given)
inactive: ACHN > 100 µM | HCT-116 66.4 µM | HOP-62 > 100 µM | HOP-92 > 100 µM | IGROV-1 > 100 µM | K562 > 100 µM | KM12 > 100 µM | M14 > 100 µM | Malme-3M > 100 µM | NCI-H460 > 100 µM | OVCAR-5 > 100 µM | OVCAR-8 > 100 µM | SF-268 > 100 µM | SK-MEL-28 > 100 µM | SK-MEL-5 > 100 µM | UACC-257 87.5 µM | UACC-62 85.9 µM
